We go through three compounds from patent publication US11925607B2, “Ketamine composition for use in a method of treatment of depression by pulmonary administration” (Celon Pharma S.A., priority 2018, dated 2024).

The test system of series [1] is patients with treatment-resistant depression. The conditions noted are these: cited from earlier work.
Another series relates to healthy volunteers. The experiment in a line: Adverse effects monitoring in clinical study, assessed by a psychiatrist. In kind it is in vivo, human. To be noted: pulmonary administration. As to the method:
Both in Part A and Part B of the study the adverse effects were monitored and assessed by a psychiatrist. The summary of the adverse effects is presented in FIG. 10 (Part A) and FIG. 11 (Part B). […] Psychomimetic effects were transient, lasting up to 30 minutes following administration. […] In Part C of the study adverse effects were monitored and assessed by a psychiatrist after each sequence of administration, i.e. on Day 1, Day 4, Day 8 and Day 11. The summary of adverse effects for Part C is presented on FIGS. 12A to 12D for Day 1, Day 4, Day 8 and Day 11, respectively. […] Psychomimetic effects were transient, lasting up to 30 minutes following administration.

A short description of series [2]: Pharmacokinetics of inhaled esketamine dry powder in healthy volunteers, clinical study. In kind it is in vivo, human. The conditions noted are these: pulmonary administration, overall conclusion. As to the method: Esketamine hydrochloride dry powder formulation of Example 2 was administered to healthy volunteers pulmonary, i.e. directly to the lungs using dry powder inhaler (DPI) (by self-administration), under supervision of medical personnel.
One puff of dry powder formulation contained 4.6 mg of esketamine hydrochloride, corresponding to 4 mg of esketamine free base and excipients 18.22 mg of lactose monohydrate and 0.18 mg of magnesium stearate.
A single dose was an inhalation events consisting of 1 to 6 puffs, i.e. 4 to 24 mg of esketamine free base nominal dose.
In part A of the study, designed as a one-centre single ascending dose, the medicine was delivered in a single dose once in one day (up to 6 consecutive puffs) to 18 healthy volunteer subjects. Subjects were divided into 6 cohorts, cohorts receiving 1, 2, 3, 4, 5 or 6 puffs in a single dose (inhalation event), respectively. Collection of blood samples for determination of esketamine and esnorketamine metabolite concentration and calculation of pharmacokinetic parameters was performed for 24 hours following the start of the test in the administration day. The aim of the study was to determine the amount of puffs in an inhalation event needed to obtain plasma concentration similar to that sufficient to achieve antidepressant effect as for 0.20 mg/kg 40 minutes intravenous infusion. […]

For series [3] the following is noted: 0.20 mg/kg 40 minutes intravenous infusion, predicted from literature data; cited from earlier work.
The next series relates to NMDA receptor. The conditions noted are these: cited from earlier work.
For series [4] the following is noted: cited from earlier work.
For series [5] the following is noted: cited from earlier work. The source holds these as a separate data set.
For series [6] the following is noted: nebulized esketamine hydrochloride saline solution; cited from earlier work.
Setting [7] is: after intravenous infusion of racemic ketamine.
Setting [8] is: after oral administration of ketamine.

With `CN[C@]1(c2ccccc2Cl)CCCCC1=O` [esketamine], the antidepressant effect entry in series [1] (TRD patients, 40-minute i.v. infusion of 0.20 mg/kg or 0.40 mg/kg (Singh et al.)) was “rapid onset of robust antidepressant effects”. In addition, the “safety of plasma concentration profile” value in the series with healthy volunteers is given as “safe for chronic administration”. In addition, the Plasma concentration profile entry in series [2] is “quite smooth, consistent with a target profile”. In addition, the “concentration at 40 min of infusion” value in series [3] is 60 to 100 ng/mL.

Consider `NC1(c2ccccc2Cl)CCCCC1=O` (centres unmarked) [norketamine], for which, in the series on NMDA receptor, the “activity on NMDA receptor relative to ketamine” value is reported as “many times less active than ketamine”. Besides, in series [4] (setting [7]), the “maximum concentration as % of ketamine concentration” value is 10-20% and the “percentage of AUC norketamine to ketamine” value is on record as 20-40%. In series [5] (setting [8]), the “AUC as % of ketamine” value is reported as “exceeding 1000%” and the “level as % of ketamine level” value was 500-1000%.

Turning to `CNC1(c2ccccc2Cl)CCCCC1=O` (racemic) [ketamine], in series [1] (human, in vivo), the “fraction of patients with treatment-resistant depression responsive” value is given as “about ⅔”. In addition, the “half-period of concentration fall” value in series [4] (after intravenous infusion 0.5 mg/kg for 40 minutes) is on record as “below 2 hours”. In addition, in series [4] (intravenous infusion 0.5 mg/kg for 40 minutes, maintained about 40 minutes), the “systemic concentration of parent drug” value is “about 200 ng/ml”. Besides, the inhaled bioavailability result in series [6] is recorded as “reduced”. Besides, in series [5] (orally administered), the bioavailability was 16-20%.
